Measurements: patent publication US12378231B2, “Small molecules as monoacylglycerol lipase (MAGL) inhibitors, compositions and use thereof” (APOGEE PHARMACEUTICALS, INC., priority 2023, dated 2025)
Read-outs that look alike come from different tables or passages of the source.

Tests used:
human recombinant MAGL = human recombinant MAGL (Homo sapiens (Human), UniProt Q99685); experiment: In vitro inhibition of human recombinant MAGL activity (Cayman inhibitor screening kit, 4-nitrophenylacetate hydrolysis); type: biochemical
human recombinant MAGL, sequence (Q99685 whole entry): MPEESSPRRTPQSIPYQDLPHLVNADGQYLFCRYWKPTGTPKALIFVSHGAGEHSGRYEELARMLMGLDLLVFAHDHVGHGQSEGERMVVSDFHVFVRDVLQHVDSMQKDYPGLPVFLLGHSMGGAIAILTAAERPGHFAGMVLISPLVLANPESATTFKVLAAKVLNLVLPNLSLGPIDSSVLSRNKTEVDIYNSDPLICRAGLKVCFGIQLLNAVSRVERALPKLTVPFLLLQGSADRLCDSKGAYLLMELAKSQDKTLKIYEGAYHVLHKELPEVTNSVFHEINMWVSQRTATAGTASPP
Source text: The inhibitory effect of the synthetic chemicals on activity of human recombinant MAGL was studied using commercial inhibitor screening kit (Cayman Chemical). […] The absorbance of the yellow product can be analyzed using the plate reader. […]

human recombinant FAAH = human recombinant FAAH (Homo sapiens (Human), UniProt O00519); experiment: In vitro inhibition of human recombinant FAAH activity (Cayman FAAH inhibitor screening kit, AMC arachidonoyl amide hydrolysis); type: biochemical
human recombinant FAAH, sequence (O00519 whole entry): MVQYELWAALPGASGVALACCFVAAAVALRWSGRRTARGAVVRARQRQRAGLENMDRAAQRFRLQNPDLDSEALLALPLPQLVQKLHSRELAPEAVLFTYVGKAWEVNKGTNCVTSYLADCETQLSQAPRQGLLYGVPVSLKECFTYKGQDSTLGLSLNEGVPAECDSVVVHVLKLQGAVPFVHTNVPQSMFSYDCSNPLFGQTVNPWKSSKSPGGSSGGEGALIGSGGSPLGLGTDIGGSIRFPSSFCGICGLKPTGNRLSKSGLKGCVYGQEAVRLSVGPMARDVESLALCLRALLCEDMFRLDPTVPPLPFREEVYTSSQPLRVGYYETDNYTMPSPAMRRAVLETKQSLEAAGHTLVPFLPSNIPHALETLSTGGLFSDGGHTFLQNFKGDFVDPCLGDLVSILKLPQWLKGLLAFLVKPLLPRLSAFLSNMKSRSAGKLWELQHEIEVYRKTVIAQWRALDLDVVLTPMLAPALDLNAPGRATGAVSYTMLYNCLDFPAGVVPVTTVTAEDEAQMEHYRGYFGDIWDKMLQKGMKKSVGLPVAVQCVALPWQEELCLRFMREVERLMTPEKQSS
Source text: In brief, FAAH hydrolyzes AMC arachidonoyl amide resulting in the release of the fluorescent product, while the inhibitor will inhibit the FAAH activity and thus reduce the fluorescent signal.

[1] = human recombinant MAGL, read-out: Inhibition on MAGL activity (IC50)

Compound | IC50 (human recombinant MAGL; [1]) | IC50 (human recombinant FAAH) | IC50 (human recombinant MAGL)
1-(4-((2,3-dihydrobenzo[b][1,4]dioxin-6-yl)(4-methoxyphenyl)methyl)piperazine-1-carbonyl)-1H-benzo[d][1,2,3]triazole-6-carbonitrile and 1-(4-((2,3-dihydrobenzo[b][1,4]dioxin-6-yl)(4-methoxyphenyl)methyl)piperazine-1-carbonyl)-1H-benzo[d][1,2,3]triazole-5-carbonitrile [Example 106] | 0.001 to 0.01 µM | ~10 µM | 
1-(4-((4-methoxyphenyl)(pyridin-3-yl)methyl)piperazine-1-carbonyl)-1H-benzo[d][1,2,3]triazole-6-carbonitrile and 1-(4-((4-methoxyphenyl)(pyridin-3-yl)methyl)piperazine-1-carbonyl)-1H-benzo[d][1,2,3]triazole-5-carbonitrile [Example 103] | 0.001 to 0.01 µM | 1 to 10 µM | 
1-(4-(bis(2,3-dihydrobenzo[b][1,4]dioxin-6-yl)methyl)piperazine-1-carbonyl)-1H-benzo[d][1,2,3]triazole-6-carbonitrile and 1-(4-(bis(2,3-dihydrobenzo[b][1,4]dioxin-6-yl)methyl)piperazine-1-carbonyl)-1H-benzo[d][1,2,3]triazole-5-carbonitrile [Example 91] | 0.001 to 0.01 µM | > 50 µM | 
1-(4-(di(pyridin-3-yl)methyl)piperazine-1-carbonyl)-1H-benzo[d][1,2,3]triazole-6-carbonitrile and 1-(4-(di(pyridin-3-yl)methyl)piperazine-1-carbonyl)-1H-benzo[d][1,2,3]triazole-5-carbonitrile [Example 105] | 0.01 to 1 µM | > 10 µM | 
O=C(OC(C(F)(F)F)C(F)(F)F)N1CCN(Cc2ccc(C(F)(F)F)cc2N2CCCC2)CC1 [ABX-1431] |  | > 50 µM | 
O=C(N1CCN(C(c2ccc3c(c2)COCO3)c2ccc3c(c2)COCO3)CC1)n1cnc(Cl)n1 [Example 2, (4-(bis(4H-benzo[d][1,3]dioxin-6-yl)methyl)piperazin-1-yl)(3-chloro-1H-1,2,4-triazol-1-yl)methanone] | 0.001 to 0.01 µM | > 10 µM | 
O=C(Oc1ccc([N+](=O)[O-])cc1)N1CCN(C(c2ccc3c(c2)COCO3)c2ccc3c(c2)COCO3)CC1 [Example 4, 4-nitrophenyl 4-(bis(4H-benzo[d][1,3]dioxin-6-yl)methyl)piperazine-1-carboxylate] |  | > 10 µM | 0.1 to 1 µM
O=C(Oc1ccc(F)cc1)N1CCN(C(c2ccc3c(c2)COCO3)c2ccc3c(c2)COCO3)CC1 [Example 5, 4-fluorophenyl 4-(bis(4H-benzo[d][1,3]dioxin-6-yl)methyl)piperazine-1-carboxylate] | > 0.1 µM | > 50 µM | 
O=C(Oc1ccc(Oc2ccccc2)cc1)N1CCN(C(c2ccc3c(c2)COCO3)c2ccc3c(c2)COCO3)CC1 [Example 7, 4-phenoxyphenyl 4-(bis(4H-benzo[d][1,3]dioxin-6-yl)methyl)piperazine-1-carboxylate] | > 0.1 µM | > 10 µM | 
O=C(N1CCN(C(c2ccc3c(c2)COCO3)c2ccc3c(c2)COCO3)CC1)n1nnc2ccccc21 [Example 8, (1H-benzo[d][1,2,3]triazol-1-yl)(4-(bis(4H-benzo[d][1,3]dioxin-6-yl)methyl)piperazin-1-yl)methanone] | 0.001 to 0.02 µM | > 20 µM | 
O=C(N1CCN(C(c2ccc3c(c2)COCO3)c2ccc3c(c2)COCO3)CC1)n1cncn1 [Example 10, (4-(bis(4H-benzo[d][1,3]dioxin-6-yl)methyl)piperazin-1-yl)(1H-1,2,4-triazol-1-yl)methanone] | 0.01 to 0.1 µM | 1 to 10 µM | 
O=C(Oc1ccc2c(c1)CCC2)N1CCN(C(c2ccc3c(c2)COCO3)c2ccc3c(c2)COCO3)CC1 [Example 12, 2,3-dihydro-1H-inden-5-yl 4-(bis(4H-benzo[d][1,3]dioxin-6-yl)methyl)piperazine-1-carboxylate] | > 0.1 µM | > 10 µM | 
O=C(Oc1ccc([N+](=O)[O-])cc1[N+](=O)[O-])N1CCN(C(c2ccc3c(c2)COCO3)c2ccc3c(c2)COCO3)CC1 [Example 13, 2,4-dinitrophenyl 4-(bis(4H-benzo[d][1,3]dioxin-6-yl)methyl)piperazine-1-carboxylate] | > 0.1 µM | > 10 µM | 
COc1ccc(OC(=O)N2CCN(C(c3ccc4c(c3)COCO4)c3ccc4c(c3)COCO4)CC2)cc1 [Example 14, 4-methoxyphenyl 4-(bis(4H-benzo[d][1,3]dioxin-6-yl)methyl)piperazine-1-carboxylate] | > 0.1 µM | > 50 µM | 
O=C(Oc1ccc([N+](=O)[O-])cc1F)N1CCN(C(c2ccc3c(c2)COCO3)c2ccc3c(c2)COCO3)CC1 [Example 19, 2-fluoro-4-nitrophenyl 4-(bis(4H-benzo[d][1,3]dioxin-6-yl)methyl)piperazine-1-carboxylate] | > 0.1 µM | > 50 µM | 
O=C(Oc1ccccn1)N1CCN(C(c2ccc3c(c2)COCO3)c2ccc3c(c2)COCO3)CC1 [Example 20, pyridin-2-yl 4-(bis(4H-benzo[d][1,3]dioxin-6-yl)methyl)piperazine-1-carboxylate] | > 0.1 µM | > 50 µM | 
S=C(N1CCN(C(c2ccc3c(c2)COCO3)c2ccc3c(c2)COCO3)CC1)n1cncn1 [Example 21, (4-(bis(4H-benzo[d][1,3]dioxin-6-yl)methyl)piperazin-1-yl)(1H-1,2,4-triazol-1-yl)methanethione] | > 0.1 µM | > 50 µM | 
O=C(On1nnc2ccc(C(F)(F)F)cc21)N1CCN(C(c2ccc3c(c2)COCO3)c2ccc3c(c2)COCO3)CC1 [Example 22, 6-(trifluoromethyl)-1H-benzo[d][1,2,3]triazol-1-yl 4-(bis(4H-benzo[d][1,3]dioxin-6-yl)methyl)piperazine-1-carboxylate] | > 0.1 µM | > 50 µM | 
O=C(On1nnc2cccnc21)N1CCN(C(c2ccc3c(c2)COCO3)c2ccc3c(c2)COCO3)CC1 [Example 23, 3H-[1,2,3]triazolo[4,5-b]pyridin-3-yl 4-(bis(4H-benzo[d][1,3]dioxin-6-yl)methyl)piperazine-1-carboxylate] | > 0.1 µM | > 10 µM | 
N#Cc1cnn(C(=O)N2CCN(C(c3ccc4c(c3)COCO4)c3ccc4c(c3)COCO4)CC2)c1 [Example 24, 1-(4-(bis(4H-benzo[d][1,3]dioxin-6-yl)methyl)piperazine-1-carbonyl)-1H-pyrazole-4-carbonitrile] | 0.001 to 0.01 µM | 1 to 10 µM | 
O=C(N1CCN(C(c2ccc3c(c2)COCO3)c2ccc3c(c2)COCO3)CC1)n1cc(-c2ccccc2)nn1 [Example 25, (4-(bis(4H-benzo[d][1,3]dioxin-6-yl)methyl)piperazin-1-yl)(4-phenyl-1H-1,2,3-triazol-1-yl)methanone] | 0.01 to 0.1 µM | > 10 µM | 
NC(=O)c1cccc(-c2cccc(OC(=O)NC3CCCCC3)c2)c1 [URB597, reference compound] | > 50 µM |  | 

The next lines start with results.

IC50 (human recombinant MAGL; [1]) | IC50 (human recombinant FAAH) | Compound | IC50 (human recombinant MAGL)
> 0.1 µM | > 50 µM | O=C(N1CCN(C(c2ccc3c(c2)COCO3)c2ccc3c(c2)COCO3)CC1)n1cccn1 [Example 1, (4-(bis(4H-benzo[d][1,3]dioxin-6-yl)methyl)piperazin-1-yl)(1H-pyrazol-1-yl)methanone] | 
0.001 to 0.02 µM | > 50 µM | O=C(OC(C(F)(F)F)C(F)(F)F)N1CCN(C(c2ccc3c(c2)COCO3)c2ccc3c(c2)COCO3)CC1 [Example 3, 1,1,1,3,3,3-hexafluoropropan-2-yl 4-(bis(4H-benzo[d][1,3]dioxin-6-yl)methyl)piperazine-1-carboxylate] | 
> 0.1 µM | > 50 µM | O=C(ON1C(=O)CCC1=O)N1CCN(C(c2ccc3c(c2)COCO3)c2ccc3c(c2)COCO3)CC1 [Example 6, 2,5-dioxopyrrolidin-1-yl 4-(bis(4H-benzo[d][1,3]dioxin-6-yl)methyl)piperazine-1-carboxylate] | 
> 0.1 µM | > 10 µM | O=C(N1CCN(C(c2ccc3c(c2)COCO3)c2ccc3c(c2)COCO3)CC1)n1ccnc1 [Example 9, (4-(bis(4H-benzo[d][1,3]dioxin-6-yl)methyl)piperazin-1-yl)(1H-imidazol-1-yl)methanone] | 
> 0.1 µM | > 50 µM | CCN(C(=O)N1CCN(C(c2ccc3c(c2)COCO3)c2ccc3c(c2)COCO3)CC1)C(C)C [Example 11, 4-(bis(4H-benzo[d][1,3]dioxin-6-yl)methyl)-N-ethyl-N-isopropylpiperazine-1-carboxamide] | 
> 0.1 µM | > 50 µM | CCC(CC)OC(=O)N1CCN(C(c2ccc3c(c2)COCO3)c2ccc3c(c2)COCO3)CC1 [Example 15, pentan-3-yl 4-(bis(4H-benzo[d][1,3]dioxin-6-yl)methyl)piperazine-1-carboxylate] | 
> 0.1 µM | > 50 µM | O=C(OC1CCCCC1)N1CCN(C(c2ccc3c(c2)COCO3)c2ccc3c(c2)COCO3)CC1 [Example 16, cyclohexyl 4-(bis(4H-benzo[d][1,3]dioxin-6-yl)methyl)piperazine-1-carboxylate] | 
> 0.1 µM | > 50 µM | O=C(N1CCCCC1)N1CCN(C(c2ccc3c(c2)COCO3)c2ccc3c(c2)COCO3)CC1 [Example 17, (4-(bis(4H-benzo[d][1,3]dioxin-6-yl)methyl)piperazin-1-yl)(piperidin-1-yl)methanone] | 
> 0.1 µM | > 50 µM | CCN(CC)C(=O)N1CCN(C(c2ccc3c(c2)COCO3)c2ccc3c(c2)COCO3)CC1 [Example 18, 4-(bis(4H-benzo[d][1,3]dioxin-6-yl)methyl)-N,N-diethylpiperazine-1-carboxamide] | 
0.01 to 0.1 µM | 1 to 10 µM | O=C(N1CCN(C(c2ccc3c(c2)COCO3)c2ccc3c(c2)COCO3)CC1)n1ncc(-c2ccccc2)n1 [Example 26, (4-(bis(4H-benzo[d][1,3]dioxin-6-yl)methyl)piperazin-1-yl)(4-phenyl-2H-1,2,3-triazol-2-yl)methanone] | 
